According to patent US7858637B2, “Administration of TLR7 ligands and prodrugs thereof for treatment of infection by hepatitis C virus” (priority 2003, dated 2010):
Values joined by “and” are separate entries in the source; they are usually repeats but may differ in a detail not shown here. Identical values can stand only once. “Also recorded” adds a separate entry of the source.

Legend:
[1] = tested on: interferon alpha; experiment: Interferon alpha plasma concentrations in mice; assay type: in vivo, mouse; details: for Mu-IFN-α plasma concentration, individual value / Mu-IFN-α plasma concentration, mean: mice
Text: Not only can one measure the plasma concentrations of isatoribine arising from oral administration of the said prodrug(s) but also the extensive immunological research conducted in the mouse has provided reagents suitable for measuring the levels of interferon alpha, a cytokine of interest reflecting one of the desired biologic activities of isatoribine.

[2] = target: T1, human TLR7 (Homo sapiens, UniProt Q9NYK1); experiment: HEK293-hTLR7 NF-kB luciferase reporter (C23) assay; details: read-out: mean fold induction of luciferase activity compared to the no drug control
T1 sequence (Q9NYK1 27-1049): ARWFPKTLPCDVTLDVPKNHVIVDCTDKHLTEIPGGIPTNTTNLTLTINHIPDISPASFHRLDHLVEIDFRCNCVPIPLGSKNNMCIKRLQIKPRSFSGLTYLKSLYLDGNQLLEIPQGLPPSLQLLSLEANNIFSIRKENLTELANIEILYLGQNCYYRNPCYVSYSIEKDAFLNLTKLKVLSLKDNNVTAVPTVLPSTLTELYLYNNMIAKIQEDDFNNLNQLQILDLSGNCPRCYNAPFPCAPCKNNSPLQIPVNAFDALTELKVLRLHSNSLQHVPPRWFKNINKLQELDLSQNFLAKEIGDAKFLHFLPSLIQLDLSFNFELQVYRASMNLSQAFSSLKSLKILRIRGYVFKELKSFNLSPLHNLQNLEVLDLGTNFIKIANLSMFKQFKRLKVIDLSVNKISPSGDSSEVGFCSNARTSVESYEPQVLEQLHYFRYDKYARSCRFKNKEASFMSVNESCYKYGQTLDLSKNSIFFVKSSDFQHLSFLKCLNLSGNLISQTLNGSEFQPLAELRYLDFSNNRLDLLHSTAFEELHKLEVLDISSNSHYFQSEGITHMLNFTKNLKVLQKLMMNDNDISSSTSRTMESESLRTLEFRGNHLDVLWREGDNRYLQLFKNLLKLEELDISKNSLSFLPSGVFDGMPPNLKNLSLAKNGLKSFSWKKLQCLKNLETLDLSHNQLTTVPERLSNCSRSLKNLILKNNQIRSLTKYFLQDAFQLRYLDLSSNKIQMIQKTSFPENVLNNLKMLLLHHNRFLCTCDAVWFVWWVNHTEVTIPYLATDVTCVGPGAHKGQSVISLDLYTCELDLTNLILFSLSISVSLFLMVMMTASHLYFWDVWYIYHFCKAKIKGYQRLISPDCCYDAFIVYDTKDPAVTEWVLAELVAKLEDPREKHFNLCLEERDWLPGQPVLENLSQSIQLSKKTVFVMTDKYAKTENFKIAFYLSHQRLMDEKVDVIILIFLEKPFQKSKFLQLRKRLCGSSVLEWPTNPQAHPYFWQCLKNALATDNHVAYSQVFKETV
Description: A stable HEK293-hTLR7 cell line was obtained from Invivogen (San Diego, Calif.), transfected with pNiFty2-Luc, an NF-kB inducible luciferase reporter plasmid (Invivogen) and (dual) stable transfectants selected. The resultant dual (hTLR7/pNiFty2-Luc) cell lines were functionally tested by response to loxoribine and isatoribine as measured by fold luciferase induction relative to a no drug control. […] See, e.g., Hemmi H. et al., Nat.
For a typical C23 assay, cells are seeded at 6×10^4 cells/well in 96 well plates and 4-24 hours later are treated with various concentrations of compound. After 2-48 hours exposure the cell monolayers are lyzed with passive lysis buffer (Promega) and the firefly luciferase assay carried out using the luciferase assay reagent (Promega) as specified by the manufacturer. Relative luciferase activities are expressed as folds of induction compared to the no drug control. A two-fold induction over background is considered a bona fide TLR7 agonist, dependent on this being a statistically significant increase.
In Table 1, isatoribine, was added to C23 cells for forty-eight hours, and the cells were then harvested and assayed for luciferase activity. Each time-point was assayed in triplicate.
Each time-point was assayed in triplicate.

[3] = Pharmacokinetics of isatoribine in beagle dogs after oral dosing; details: both, dog, in vivo, 50 mg/kg
Description: The effect of a prodrug (val-isatoribine, 24) on the systemic exposure to isatoribine (21) after oral administration to beagle dogs was investigated. Isatoribine was prepared in sodium bicarbonate solution. Val-isatoribine and isatoribine were prepared as the following formulations, which were chosen to ensure solubility: Formulation 1: […] Formulation 2: […] Four male and four female adult beagle dogs weighing between 15 to 27 kg and approximately 1-2 years old were used at the beginning of the study. The animals were divided into 2 groups of 2 males and 2 females each. The test material was administered by gavage on Days 1 and 8, allowing a 7 day washout period between administrations. […] The plasma was frozen at −70° C. until analysis. The plasma was analyzed for isatoribine by an HPLC-MS/MS assay.

[4] = one vehicle dose, one oral 50 mg/kg dose 4 hours later, time 4.03 h (second dose)
[5] = one vehicle dose, one oral 50 mg/kg dose 4 hours later, time 4.08 h (second dose)
[6] = one vehicle dose, one oral 50 mg/kg dose 4 hours later, time 4.25 h (second dose)
[7] = one vehicle dose, one oral 50 mg/kg dose 4 hours later, time 8.00 h (second dose)
[8] = two oral 50 mg/kg doses 4 hours apart, time 0.08 h (first dose)
[9] = two oral 50 mg/kg doses 4 hours apart, time 0.50 h (first dose)
[10] = two oral 50 mg/kg doses 4 hours apart, time 1.00 h (first dose)
[11] = two oral 50 mg/kg doses 4 hours apart, time 3.00 h (first dose)
[12] = two oral 50 mg/kg doses 4 hours apart, time 4.00 h (first dose)
[13] = two oral 50 mg/kg doses 4 hours apart, time 4.03 h (second dose)
[14] = two oral 50 mg/kg doses 4 hours apart, time 4.08 h (second dose)
[15] = two oral 50 mg/kg doses 4 hours apart, time 4.25 h (second dose)
[16] = two oral 50 mg/kg doses 4 hours apart, time 5.00 h (second dose)
[17] = two oral 50 mg/kg doses 4 hours apart, time 5.50 h (second dose)
[18] = two oral 50 mg/kg doses 4 hours apart, time 7.00 h (second dose)
[19] = oral dosing, data of Tables 15, 16 and 17

SMILES: Nc1nc2c(sc(=O)n2[C@@H]2O[C@H](CO)[C@@H](O)[C@H]2O)c(=O)[nH]1 [Compound 21, 7-thia-8-oxoguanosine]
- Mu-IFN-α plasma concentration, individual value [1, 4]: BQL^25 pg/mL
- Mu-IFN-α plasma concentration, mean [1, 4]: 0.00 pg/mL
- Mu-IFN-α plasma concentration, individual value [1, 5]: BQL^25 pg/mL
- Mu-IFN-α plasma concentration, mean [1, 5]: 0.00 pg/mL
- Mu-IFN-α plasma concentration, individual value [1, 6]: BQL^25 pg/mL
- Mu-IFN-α plasma concentration, mean [1, 6]: 0.00 pg/mL
- Mu-IFN-α plasma concentration, mean ([1]; one vehicle dose, one oral 50 mg/kg dose 4 hours later, time 4.50 h (second dose)): 44.4 pg/mL
- Mu-IFN-α plasma concentration, individual value ([1]; one vehicle dose, one oral 50 mg/kg dose 4 hours later, time 4.50 h (second dose), listed as Isatoribine, 50 mg/kg): BQL^100 pg/mL and BQL^25 pg/mL and 133.2 pg/mL
- Mu-IFN-α plasma concentration, mean ([1]; one vehicle dose, one oral 50 mg/kg dose 4 hours later, time 5.00 h (second dose)): 37.5 pg/mL
- Mu-IFN-α plasma concentration, individual value ([1]; one vehicle dose, one oral 50 mg/kg dose 4 hours later, time 5.00 h (second dose), listed as Isatoribine, 50 mg/kg): 74.9 pg/mL and BQL^50 pg/mL
- Mu-IFN-α plasma concentration, mean ([1]; one vehicle dose, one oral 50 mg/kg dose 4 hours later, time 5.50 h (second dose)): 0.00 pg/mL
- Mu-IFN-α plasma concentration, individual value ([1]; one vehicle dose, one oral 50 mg/kg dose 4 hours later, time 5.50 h (second dose), listed as Isatoribine, 50 mg/kg): BQL^250 pg/mL; also recorded: BQL^75 pg/mL; also recorded: BQL^25 pg/mL
- Mu-IFN-α plasma concentration, mean ([1]; one vehicle dose, one oral 50 mg/kg dose 4 hours later, time 6.00 h (second dose)): 0.00 pg/mL
- Mu-IFN-α plasma concentration, individual value ([1]; one vehicle dose, one oral 50 mg/kg dose 4 hours later, time 6.00 h (second dose), listed as Isatoribine, 50 mg/kg): BQL^25 pg/mL; also recorded: BQL^75 pg/mL
- Mu-IFN-α plasma concentration, mean ([1]; one vehicle dose, one oral 50 mg/kg dose 4 hours later, time 7.00 h (second dose)): 0.00 pg/mL
- Mu-IFN-α plasma concentration, individual value ([1]; one vehicle dose, one oral 50 mg/kg dose 4 hours later, time 7.00 h (second dose), listed as Isatoribine, 50 mg/kg): BQL^50 pg/mL; also recorded: BQL^25 pg/mL
- Mu-IFN-α plasma concentration, individual value [1, 7]: BQL^25 pg/mL
- Mu-IFN-α plasma concentration, mean [1, 7]: 0.00 pg/mL
- Mu-IFN-α plasma concentration, mean ([1]; two oral 50 mg/kg doses 4 hours apart, time 0.00 h (first dose)): 0.00 pg/mL
- Mu-IFN-α plasma concentration, individual value ([1]; two oral 50 mg/kg doses 4 hours apart, time 0.00 h (first dose), listed as Isatoribine, 50 mg/kg): BQL^50 pg/mL; also recorded: BQL^125 pg/mL
- Mu-IFN-α plasma concentration, mean ([1]; two oral 50 mg/kg doses 4 hours apart, time 0.03 h (first dose)): 0.00 pg/mL
- Mu-IFN-α plasma concentration, individual value ([1]; two oral 50 mg/kg doses 4 hours apart, time 0.03 h (first dose), listed as Isatoribine, 50 mg/kg): BQL^25 pg/mL; also recorded: BQL^250 pg/mL
- Mu-IFN-α plasma concentration, individual value [1, 8]: BQL^25 pg/mL
- Mu-IFN-α plasma concentration, mean [1, 8]: 0.00 pg/mL
- Mu-IFN-α plasma concentration, mean ([1]; two oral 50 mg/kg doses 4 hours apart, time 0.25 h (first dose)): 0.00 pg/mL
- Mu-IFN-α plasma concentration, individual value ([1]; two oral 50 mg/kg doses 4 hours apart, time 0.25 h (first dose), listed as Isatoribine, 50 mg/kg): BQL^50 pg/mL; also recorded: BQL^25 pg/mL
- Mu-IFN-α plasma concentration, individual value [1, 9]: BQL^25 pg/mL
- Mu-IFN-α plasma concentration, mean [1, 9]: 0.00 pg/mL
- Mu-IFN-α plasma concentration, individual value [1, 10]: BQL^25 pg/mL
- Mu-IFN-α plasma concentration, mean [1, 10]: 0.00 pg/mL
- Mu-IFN-α plasma concentration, mean ([1]; two oral 50 mg/kg doses 4 hours apart, time 1.50 h (first dose)): 0.00 pg/mL
- Mu-IFN-α plasma concentration, individual value ([1]; two oral 50 mg/kg doses 4 hours apart, time 1.50 h (first dose), listed as Isatoribine, 50 mg/kg): BQL^100 pg/mL; also recorded: BQL^25 pg/mL
- Mu-IFN-α plasma concentration, mean ([1]; two oral 50 mg/kg doses 4 hours apart, time 2.00 h (first dose)): 0.00 pg/mL
- Mu-IFN-α plasma concentration, individual value ([1]; two oral 50 mg/kg doses 4 hours apart, time 2.00 h (first dose), listed as Isatoribine, 50 mg/kg): BQL^25 pg/mL; also recorded: BQL^75 pg/mL
- Mu-IFN-α plasma concentration, individual value [1, 11]: BQL^25 pg/mL
- Mu-IFN-α plasma concentration, mean [1, 11]: 0.00 pg/mL
- Mu-IFN-α plasma concentration, individual value [1, 12]: BQL^25 pg/mL
- Mu-IFN-α plasma concentration, mean [1, 12]: 0.00 pg/mL
- Mu-IFN-α plasma concentration, individual value [1, 13]: BQL^25 pg/mL
- Mu-IFN-α plasma concentration, mean [1, 13]: 0.00 pg/mL
- Mu-IFN-α plasma concentration, individual value [1, 14]: BQL^25 pg/mL
- Mu-IFN-α plasma concentration, mean [1, 14]: 0.00 pg/mL
- Mu-IFN-α plasma concentration, individual value [1, 15]: BQL^25 pg/mL
- Mu-IFN-α plasma concentration, mean [1, 15]: 0.00 pg/mL
- Mu-IFN-α plasma concentration, mean ([1]; two oral 50 mg/kg doses 4 hours apart, time 4.50 h (second dose)): 0.00 pg/mL
- Mu-IFN-α plasma concentration, individual value ([1]; two oral 50 mg/kg doses 4 hours apart, time 4.50 h (second dose), listed as Isatoribine, 50 mg/kg): BQL^50 pg/mL; also recorded: BQL^37.5 pg/mL
- Mu-IFN-α plasma concentration, individual value [1, 16]: BQL^50 pg/mL
- Mu-IFN-α plasma concentration, mean [1, 16]: 0.00 pg/mL
- Mu-IFN-α plasma concentration, individual value [1, 17]: BQL^37.5 pg/mL
- Mu-IFN-α plasma concentration, mean [1, 17]: 0.00 pg/mL
- Mu-IFN-α plasma concentration, mean ([1]; two oral 50 mg/kg doses 4 hours apart, time 6.00 h (second dose)): 0.00 pg/mL
- Mu-IFN-α plasma concentration, individual value ([1]; two oral 50 mg/kg doses 4 hours apart, time 6.00 h (second dose), listed as Isatoribine, 50 mg/kg): BQL^50 pg/mL; also recorded: BQL^41.3 pg/mL; also recorded: BQL^37.5 pg/mL
- Mu-IFN-α plasma concentration, individual value [1, 18]: BQL^50 pg/mL
- Mu-IFN-α plasma concentration, mean [1, 18]: 0.00 pg/mL
- Mu-IFN-α plasma concentration, mean ([1]; two oral 50 mg/kg doses 4 hours apart, time 8.00 h (second dose)): 0.00 pg/mL
- Mu-IFN-α plasma concentration, individual value ([1]; two oral 50 mg/kg doses 4 hours apart, time 8.00 h (second dose), listed as Isatoribine, 50 mg/kg): BQL^50 pg/mL; also recorded: BQL^25 pg/mL
- mice with detectable interferon in their plasma [1, 19]: 4 of the 114
- proportion of mice exhibiting an interferon response [1, 19]: 4%
- fold induction at 50 µM [2]: 3.1
- fold induction at 100 µM [2]: 3.4
- fold induction at 250 µM [2]: 6.2
- fold induction at 500 µM [2]: 10.9
- AUC Ratio (to isatoribine in bicarbonate solution) [3]: 1.00
- Cmax Ratio (to isatoribine in bicarbonate solution) [3]: 1.00
